# Test: in vitro
# Conditions: human, hela cells
row,SMILES,"viability at 28.5 h, 10 µM [%]"
1,CN(C)C(=O)OCCn1c(=O)oc2cc(Cl)ccc21 [CBK306455],81.9

# Same assay, conditions: human, hela cells, % viability
row,SMILES,"viability at 28.5 h, 10 µM [%]"
1,CCCn1c(SCC(=O)N2CCN(C(=O)c3cccs3)CC2)n[nH]c1=O [CBK297109],97.6
2,CC(=O)OC(C(=O)N1CCCCCC1)c1ccc(Br)cc1 (stereo not shown) [CBK007027],109
3,O=C(Nc1nc2ccccc2[nH]1)c1ccc(N2CCCS2(=O)=O)cc1 [CBK304582],98.6
4,NC(=O)c1ccc(NC(=O)CSc2nnc(-c3ccncc3)n2-c2ccc(Br)cc2)cc1 [CBK266202],103
5,CCN(CC)C(=O)c1sccc1NS(=O)(=O)Cc1ccccc1 [CBK050393],106
6,CC(C)(C)c1cc(C(=O)O)c(CN2CCOCC2)o1 [CBK264052],88.7
7,CS(=O)(=O)c1ccc(-c2cnc3nc(N)ccc3c2)cc1 [CBK061916],92.9
8,O=C(CC1CCCC1)N1CCCC(c2cc3cccnc3[nH]2)C1 (stereo not shown) [CBK284940],98.6
9,COc1ccc(-c2cncc(NCc3ccncc3)n2)cc1 [CBK065394],111
10,COc1cc(OC)c(NS(=O)(=O)c2cc(C(=O)O)ccc2C)cc1Cl [CBK296105],101
11,Cc1cc2nc(NCC3CCCO3)c3ccccc3n2n1 (stereo not shown) [CBK305871],99.6
12,COc1cc(NS(=O)(=O)c2cc(C(=O)O)c(Cl)cc2Cl)cc(OC)c1 [CBK113162],98.9
13,CCn1cc(Cl)c(C(=O)NC2CCN(c3cnccn3)CC2)n1 [CBK306922],95.5
14,c1cncc(-c2cn3ccnc3c(NCC3CC3)n2)c1 [CBK036609],84
15,O=S(=O)(c1ccccc1)c1nc(N2CCNCC2)cn2ccnc12 [CBK154875T],94.7
16,Cc1cc(/C=C(/C#N)c2ccc(C(=O)O)cc2)c(C)n1-c1ccc(S(N)(=O)=O)cc1 [CBK268896],116
17,CCCCC12CN3CC(C)(CN(C1)C31C(=O)N(C)c3ccc(C)cc31)C2=O (stereo not shown) [CBK267286],96.1
18,CN1CCN(CCC(=O)N2c3ccccc3Sc3ccc(C(F)(F)F)cc32)CC1 [CBK278221C],103
19,CN(c1ccccc1C(N)=O)S(=O)(=O)c1ccc(S(=O)(=O)C(F)F)cc1 [CBK298289],88.3
20,c1ccc(N2CCC(CNCc3c[nH]nc3-c3cccnc3)C2)cc1 (stereo not shown) [CBK305738],88.7

row,SMILES,"viability at 28.5 h, 10 µM [%]"
1,COC(=O)c1ccc(NC(=O)c2oc3ccc(Br)cc3c2C)cc1 [CBK296758],95.7
2,CC(C)COc1ccc(C(CC(=O)O)C(=O)O)cc1 (stereo not shown) [CBK286759],103
3,Cc1ccc(Cc2cnc(NC(=O)NC3CCOC(C)(C)C3)s2)cc1F (stereo not shown) [CBK304139],92.2
4,CCCCN(C(C)=O)c1c(CC)nc2ccc(C(=O)NCCCn3ccnc3)cn12 [CBK145759],96.1
5,Cn1cncc1CN1C2CCC1CC(O)(c1ccccc1F)C2 (stereo not shown) [CBK282649],107
6,Cc1ccccc1OC(C)C(=O)Nn1cnnc1 (stereo not shown) [CBK268619],96.2
7,C=C(C)Cn1c(Cc2c[nH]c3ccccc23)nnc1SCC(C)C [CBK200087T],98.6
8,CC(CN(C)C(=O)Cn1cccc(C(=O)NC2CCCCC2)c1=O)c1ccccc1 (stereo not shown) [CBK286066],92.5
9,Clc1ccc(-c2csc(NCc3ccco3)n2)cc1 [CBK058168],109
10,Cc1cc2ccccc2n2c(=O)n(CC(=O)N3CCCCC3)nc12 [CBK283878],85.8
11,CC1(C)Cc2nc(N3CCOCC3)ncc2C(NC(=O)C2CCC2)C1 (stereo not shown) [CBK306943],83.8
12,O=C(Nc1cccc(-c2nc3ccccc3s2)c1)c1ccc(S(=O)(=O)N2CCCC2)cc1 [CBK261787],96.7
13,O=C(O)c1ccccc1C1Nc2ccccc2S(=O)(=O)N1Cc1ccccc1 (stereo not shown) [CBK286587],107
14,O=C(c1ccoc1)N1CCC2(CCCN(Cc3cc(=O)[nH]c(=O)[nH]3)C2)C1 (stereo not shown) [CBK132823],97.8
15,COc1cc(CC(=O)N2CCc3c(sc4ncnc(N)c34)C2)ccc1C [CBK306013],103
16,Fc1ccccc1CN(CCCn1ccnc1)Cc1ccncc1 [CBK282981],102
17,CCCC(=O)N1CCn2c(nnc2-c2cncc(Br)c2)C1 [CBK304761],93.4
18,CC(CCc1ccccc1)NC(=O)CCC(=O)O (stereo not shown) [CBK267918],86.6
19,O=C(O)c1cc(C(=O)O)c(-c2ccccc2)c(C(=O)O)c1 [CBK261101],93.7
20,Cc1cc(C)n(CC2CCCN2C(=O)CCCc2ccccn2)n1 (stereo not shown) [CBK305920],105

row,SMILES,"viability at 28.5 h, 10 µM [%]"
1,Cc1c(C)n(Cc2ccco2)c2ncnc(N3CCC(C(=O)O)CC3)c12 [CBK307599],99.1
2,COCC(=O)NCc1cc2n(n1)CCN(Cc1cccs1)C2 [CBK307085],106
3,COCCNC(=O)c1ccc(-c2ccccc2OC)nc1NCC1CC1 [CBK106246],103
4,O=C(O)[C@@H]1CCCN1c1nc(O)cc(C(F)(F)F)n1 [CBK002865],81.3
5,CC(C)[C@H](CO)Nc1cncc(-c2ccc(F)cc2F)n1 [CBK065883],92.3
6,C/C(CC(=O)Nc1ccccc1C(N)=O)=N\NC(=O)c1ccoc1C [CBK262957],100
7,O=C(CC1CCN(Cc2ccccn2)CC1)NCC1(c2ccccc2)CCCC1 [CBK285959],87.4
8,Cc1cc(NC(=O)CN2CCN(Cc3ccccc3C#N)CC2)no1 [CBK305644],77.3
9,CC(C)(C)n1cc(NC2CCN(c3ccc(C#N)cc3)C2=O)cn1 (stereo not shown) [CBK306445],85.7
10,CSc1nnc(CC2CCN(C(=O)c3ccccc3C(C)=O)CC2)n1C [CBK306720],111
11,Cc1sc2nc(SCC(=O)NCCO)nc(N)c2c1C [CBK264423],109
12,Cc1ccc(NC(=O)c2cnc(SCc3ccc(F)cc3)n(C)c2=O)cc1C [CBK287674],90.5
13,O=c1n(Cc2cccnc2)c2cccnc2n1Cc1cccs1 [CBK283903],89.7
14,CC(C)(C)c1ccc(N(C2CCNCC2)S(=O)(=O)c2cccc(C(F)(F)F)c2)cc1 [CBK165056T],114
15,CCN1CCN(C(=O)Cc2cccnc2)CC1 [CBK200375],92.3
16,Cc1cc(CNC(=O)CCc2c(C)nc3nc(N)nn3c2C)ccc1F [CBK306212],91.9
17,COc1cnc(-c2ccsc2)c(NC(=O)CC(C)C)n1 [CBK145292],94
18,Cc1ccc(S(=O)(=O)NCCCN2CCOCC2)cc1C [CBK262934],96.6
19,CCC(=O)N1CCc2cc(C(O)CN3CCCCC3C)ccc21 (stereo not shown) [CBK283112],105

# Same assay, conditions: human, hela cells, % viability, bulk resorufin, single well
row,SMILES,"viability at 28.5 h, 10 µM [%]"
1,Cc1ccc(Cn2nc(C(=O)NCCc3c[nH]c4ccccc34)c3ccccc32)cc1 [CBK047830],98.7
2,O=C1NC(=O)C(=Cc2ccc(-c3ccc([N+](=O)[O-])cc3)o2)C(=O)N1 [CBK229904],114
3,CCCCN1C(=O)C(O)(c2c(C)nn(CCO)c2N)c2ccccc21 (stereo not shown) [CBK304286],116
4,O=C(NNc1c(Cl)cccc1Cl)C(O)(c1ccccc1)c1ccccc1 [CBK262739],101

# Source: publication PMC12040169 (PLOS Biology, 2025)
